# Measurements reported in US20130345419A1, “AZOLE DERIVATIVE” (TAISHO PHARMACEUTICAL CO., LTD., priority 2011, published 2013).
# What was measured:
# human recombinant FKBP12 = target: T1, human recombinant FKBP12 (Homo sapiens, UniProt P62942); assay: Test 1: immunophilin FKBP12 rotamase (peptidylprolyl isomerase) inhibiting activity; assay type: biochemical; conditions: 12 nM human recombinant FKBP12, substrate succinyl-Ala-Phe-Pro-Phe-paranitroanilide 48 μM, 4° C.; read-out: PKBP12 rotamase inhibiting activity IC50
# T1 construct: purchased Sigma F-5398
# Procedure: (Test 1) Test for Measuring Immunophilin FKBP12 Rotamase Activity
# The rotamase (peptidylprolyl isomerase) inhibiting activity of each test compound was measured by a known method (Harding et al., Nature 341, 758-760, 1989; Holts et al., J. Am. Chem. Soc. 115, 9925-9938, 1993.) To be more specific, a plastic cuvette was charged with 35 mM HEPES (pH 7.8), 12 nM human recombinant FKBP12 (Sigma, F-5398), 0.4 mg/mL α-chymotrypsin, and a test compound dissolved in DMSO at varying concentrations (DMSO's final concentration was 0.1%.) Subsequently, 24 mM of the substrate peptide, succinyl-Ala-Phe-Pro-Phe-paranitroanilide, as dissolved in trifluoroethanol containing 500 mM of LiCl was added to give a final concentration of 48 μM, whereupon reaction started. The reaction was carried out at 4° C. and the change in absorbance at 390 nm accompanying the liberation of the paranitroaniline product was monitored. A calculated initial rate minus the corresponding value in the absence of the enzyme was used as an index of rotamase activity. The rotamase inhibiting activity of a test compound was expressed in relative values (%) with respect to the control value of rotamase activity in the absence of the compound, and the concentration of the compound at which it was capable of inhibiting rotamase activity by 50% was calculated as an IC50 value from its concentration response curve.
# [1] = test system: proliferating cell nuclear antigen (PCNA); assay: Test 6: anagen induction stimulating effect in shaven mouse model, skin PCNA by ELISA; assay type: in vivo; conditions: 5% (w/v) in 80% ethanol, 200 μL once daily for 2 days, skin sampled about 4 hours after second administration, C57BL mice
# Procedure: (Test 6) Test for Measuring Anagen Induction Stimulating Effect in Shave Mouse Model
# The anagen induction stimulating effect of a compound was measured by the following method with the quantity of skin PCNA being used as an index.
# C57BL mice (female, ca. 7-wk old) were shaven on the back and a base (80% ethanol) or a solution prepared by dissolving 5% (w/v) of Compound 40, 52, 59, 61, 63, 64 or 66 in this base was administered by applying them to the shaven area in 200-μL portions once daily for 2 days starting 3 days after the shaving (each group consisting of 5 heads.) About 4 hours after the administration on the second day, the skin at the application site was sampled and homogenized in a buffer containing 50 mM Tris-HCl (pH 7.6), 150 mM NaCl, 1% NP-40, and a protease inhibitor. By a centrifugal separation procedure, a PCNA containing protein solution was prepared and the quantity of PCNA in the solution was measured with a PCNA-ELISA kit of Calbiochem, Inc.
# T1 sequence (P62942 whole entry): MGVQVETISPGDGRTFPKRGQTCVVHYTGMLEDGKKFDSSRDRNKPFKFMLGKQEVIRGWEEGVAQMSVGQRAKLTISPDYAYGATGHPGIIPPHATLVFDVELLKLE
IC50 (human recombinant FKBP12) [nM],SMILES,quantity of skin PCNA versus base administered group [1],skin PCNA levels relative to base administered group [1]
204,"CC1(C)CC(C)(C)CC(O)(C(F)(F)C(=O)N2CCC[C@H]2c2cc(COc3ccccc3)on2)C1 [Compound 52, (S)-2,2-Difluoro-2-(1-hydroxy-3,3,5,5-tetramethylcyclohexyl)-1-(2-(5-(phenoxymethyl)isoxazol-3-yl)pyrrolidin-1-yl)ethanone]",increases in the quantity of skin PCNA,
185,"CC1(C)CC(C)(C)CC(O)(C(F)(F)C(=O)N2CCC[C@H]2c2cc(COc3ccncn3)on2)C1 [Compound 63, (S)-2,2-Difluoro-2-(1-hydroxy-3,3,5,5-tetramethylcyclohexyl)-1-(2-(5-((pyrimidin-4-yloxy)methyl)isoxazol-3-yl)pyrrolidin-1-yl)ethanone]",increases in the quantity of skin PCNA,
,"CC1(C)CC(C)(C)CC(O)(C(F)(F)C(=O)N2CCC[C@H]2c2cc(Cn3ccc(=O)cc3)on2)C1 [Compound 66, (S)-1-((3-(1-(2,2-Difluoro-2-(1-hydroxy-3,3,5,5-tetramethylcyclohexyl)acetyl)pyrrolidin-2-yl)isoxazol-5-yl)methyl)pyridin-4(1H)-one]",,approximately 1.4 times
124,CC1(C)CC(C)(C)CC(O)(C(F)(F)C(=O)N2CCC[C@H]2c2cc(COc3cncnc3)on2)C1 [Compound 59],increases in the quantity of skin PCNA,
500 to 1000,"COc1ccc(OCc2cnc([C@@H]3CCCN3C(=O)C(F)(F)C3(O)CC(C)(C)CC(C)(C)C3)s2)cc1OC [Compound 7, (S)-1-(2-(5-((3,4-Dimethoxyphenoxy)methyl)thiazol-2-yl)pyrrolidin-1-yl)-2,2-difluoro-2-(1-hydroxy-3,3,5,5-tetramethylcyclohexyl)ethanone]",,
235,"COc1ccc(OCc2cc([C@@H]3CCCN3C(=O)C(F)(F)C3(O)CC(C)(C)CC(C)(C)C3)n[nH]2)cc1OC [Compound 11, (S)-1-(2-(5-((3,4-Dimethoxyphenoxy)methyl)-1H-pyrazol-3-yl)pyrrolidin-1-yl)-2,2-difluoro-2-(1-hydroxy-3,3,5,5-tetramethylcyclohexyl)ethanone]",,
218,COc1ccc(OCc2nnc([C@@H]3CCCN3C(=O)C(F)(F)C3(O)CC(C)(C)CC(C)(C)C3)o2)cc1 [Compound 24],,
389,COc1ccc(OCc2nnc([C@@H]3CCCN3C(=O)C(F)(F)C3(O)CC(C)(C)CC(C)(C)C3)o2)cn1 [Compound 31],,
152,"CC1(C)CC(C)(C)CC(O)(C(F)(F)C(=O)N2CCC[C@H]2c2cc(Cn3ccc(=O)nc3)on2)C1 [Compound 61, (S)-1-((3-(1-(2,2-Difluoro-2-(1-hydroxy-3,3,5,5-tetramethylcyclohexyl)acetyl)pyrrolidin-2-yl)isoxazol-5-yl)methyl)pyrimidin-4(1H)-one]",increases in the quantity of skin PCNA,
74,COc1ccc(CC(=O)NCc2cc([C@@H]3CCCN3C(=O)C(F)(F)C3(O)CC(C)(C)CC(C)(C)C3)no2)cc1OC [Compound 51],,
310,"CN(C)Cc1cc([C@@H]2CCCN2C(=O)C(F)(F)C2(O)CC(C)(C)CC(C)(C)C2)no1 [Compound 46, (S)-1-(2-(5-((Dimethylamino)methyl)isoxazol-3-yl)pyrrolidin-1-yl)-2,2-difluoro-2-(1-hydroxy-3,3,5,5-tetramethylcyclohexyl)ethanone]",,
62,"COc1ccc(OCc2nnc([C@@H]3CCCN3C(=O)C(F)(F)C3(O)CC(C)(C)CC(C)(C)C3)o2)cc1OC [Compound 2, (S)-1-(2-(5-((3,4-Dimethoxyphenoxy)methyl)-1,3,4-oxadiazol-2-yl)pyrrolidin-1-yl)-2,2-difluoro-2-(1-hydroxy-3,3,5,5-tetramethylcyclohexyl)ethanone]",,
500 to 1000,Cc1nnc([C@@H]2CCCN2C(=O)C(F)(F)C2(O)CC(C)(C)CC(C)(C)C2)o1 [Compound 27],,
250,"CC1(C)CC(C)(C)CC(O)(C(F)(F)C(=O)N2CCC[C@H]2c2cc(COc3ncccn3)on2)C1 [Compound 58, (S)-2,2-Difluoro-2-(1-hydroxy-3,3,5,5-tetramethylcyclohexyl)-1-(2-(5-((pyrimidin-2-yloxy)methyl)isoxazol-3-yl)pyrrolidin-1-yl)ethanone]",,
145,"COc1ccc(OCc2nnc([C@@H]3CCCN3C(=O)C(F)(F)C3(O)CC(C)(C)CC(C)(C)C3)s2)cc1OC [Compound 4, (S)-1-(2-(5-((3,4-Dimethoxyphenoxy)methyl)-1,3,4-thiadiazol-2-yl)pyrrolidin-1-yl)-2,2-difluoro-2-(1-hydroxy-3,3,5,5-tetramethylcyclohexyl)ethanone]",,
79,"CC1(C)CC(C)(C)CC(O)(C(F)(F)C(=O)N2CCC[C@H]2c2cc(COc3ccncc3)on2)C1 [Compound 57, (S)-2,2-Difluoro-2-(1-hydroxy-3,3,5,5-tetramethylcyclohexyl)-1-(2-(5-((pyridin-4-yloxy)methyl)isoxazol-3-yl)pyrrolidin-1-yl)ethanone]",,
228,"CC1(C)CC(C)(C)CC(O)(C(F)(F)C(=O)N2CCC[C@H]2c2cc(COc3cnccn3)on2)C1 [Compound 55, (S)-2,2-Difluoro-2-(1-hydroxy-3,3,5,5-tetramethylcyclohexyl)-1-(2-(5-((pyrazin-2-yloxy)methyl)isoxazol-3-yl)pyrrolidin-1-yl)ethanone]",,
86,"CC1(C)CC(C)(C)CC(O)(C(F)(F)C(=O)N2CCC[C@H]2c2cc(COc3ccnnc3)on2)C1 [Compound 53, (S)-2,2-Difluoro-2-(1-hydroxy-3,3,5,5-tetramethylcyclohexyl)-1-(2-(5-((pyridazin-4-yloxy)methyl)isoxazol-3-yl)pyrrolidin-1-yl)ethanone]",,
166,"CC1(C)CC(C)(C)CC(O)(C(F)(F)C(=O)N2CCC[C@H]2c2cc(CNC(=O)c3ccccc3)on2)C1 [Compound 44, (S)—N-((3-(1-(2,2-Difluoro-2-(1-hydroxy-3,3,5,5-tetramethylcyclohexyl)acetyl)pyrrolidin-2-yl)isoxazol-5-yl)methyl)benzamide]",,
1000 to 2000,"CC1(C)CC(C)(C)CC(O)(C(F)(F)C(=O)N2CCC[C@H]2c2nnc(COS(C)(=O)=O)o2)C1 [Compound 23, (S)-(5-(1-(2,2-Difluoro-2-(1-hydroxy-3,3,5,5-tetramethylcyclohexyl)acetyl)pyrrolidin-2-yl)-1,3,4-oxadiazol-2-yl)methyl methanesulfonate]",,
189,"COc1ccc(OCc2nc([C@@H]3CCCN3C(=O)C(F)(F)C3(O)CC(C)(C)CC(C)(C)C3)nn2C)cc1OC [Compound 8, (S)-1-(2-(5-((3,4-Dimethoxyphenoxy)methyl)-1-methyl-1H-1,2,4-triazol-3-yl)pyrrolidin-1-yl)-2,2-difluoro-2-(1-hydroxy-3,3,5,5-tetramethylcyclohexyl)ethanone]",,
500 to 1000,"COc1ccc(OCc2cnc([C@@H]3CCCN3C(=O)C(F)(F)C3(O)CC(C)(C)CC(C)(C)C3)o2)cc1OC [Compound 6, (S)-1-(2-(5-((3,4-Dimethoxyphenoxy)methyl)oxazol-2-yl)pyrrolidin-1-yl)-2,2-difluoro-2-(1-hydroxy-3,3,5,5-tetramethylcyclohexyl)ethanone]",,
182,"CC1(C)CC(C)(C)CC(O)(C(F)(F)C(=O)N2CCC[C@H]2c2cc(COc3cccc(F)c3)on2)C1 [Compound 64, (S)-2,2-Difluoro-1-(2-(5-((3-fluorophenoxy)methyl)isoxazol-3-yl)pyrrolidin-1-yl)-2-(1-hydroxy-3,3,5,5-tetramethylcyclohexyl)ethanone]",increases in the quantity of skin PCNA,
290,"CC1(C)CC(C)(C)CC(O)(C(F)(F)C(=O)N2CCC[C@H]2c2cc(COc3ccccn3)on2)C1 [Compound 54, (S)-2,2-Difluoro-2-(1-hydroxy-3,3,5,5-tetramethylcyclohexyl)-1-(2-(5-((pyridin-2-yloxy)methyl)isoxazol-3-yl)pyrrolidin-1-yl)ethanone]",,
500 to 1000,CC1(C)CC(C)(C)CC(O)(C(F)(F)C(=O)N2CCC[C@H]2c2cc(C(C)(C)O)on2)C1 [Compound 49],,
